One assay addresses T1, CDK16 (Homo sapiens, UniProt Q00536).
T1 construct: purchased in-house DSF panel (SGC Frankfurt)
Kind of assay: DSF. The settings on record: 10 μM compound. The assay is classed as binding. An excerpt:
(§1) To investigate the selectivity profile of the different series, a differential scanning fluorimetry (DSF) assay was used. This assay offers a rapid and sensitive screening method that determines the denaturation temperature of a protein in absence and presence of a compound. This assay format measures the fluorescence of a dye, which depends on the folding state of the protein. The difference between the melting temperature (ΔTm) in the absence and presence of the compound represents the binding strength to the protein.
(§2) Measurements were performed in duplicates.

The target of assay [1] is T2, CDK2 (Homo sapiens, UniProt P24941).
T2 construct: purchased in-house DSF panel (SGC Frankfurt)
Kind of assay: DSF. The assay is classed as binding. The settings on record: 10 μM compound.
Excerpt: as §1, §2

The subject of assay [2] is in-house panel of 89–105 kinases. Kind of assay: DSF selectivity screen. The assay is classed as binding. The settings on record: number of kinases of the DSF panel.
Excerpt: To investigate the selectivity profile of the different series, a differential scanning fluorimetry (DSF) assay was used. This assay offers a rapid and sensitive screening method that determines the denaturation temperature of a protein in absence and presence of a compound. This assay format measures the fluorescence of a dye, which depends on the folding state of the protein. The difference between the melting temperature (ΔTm) in the absence and presence of the compound represents the binding strength to the protein. We used an in-house panel of 89–105 kinases to screen all synthesized inhibitors (Tables S1–S3).
as §2

For assay [3], the target named is T3, GSK3B (Homo sapiens, UniProt P49841). The experiment in a line: DSF. Further details: purchased in-house DSF panel (SGC Frankfurt). The assay is classed as binding. The settings on record: 10 μM compound.
Excerpt: as §1, §2
Target sequence in this assay (P49841 35-386): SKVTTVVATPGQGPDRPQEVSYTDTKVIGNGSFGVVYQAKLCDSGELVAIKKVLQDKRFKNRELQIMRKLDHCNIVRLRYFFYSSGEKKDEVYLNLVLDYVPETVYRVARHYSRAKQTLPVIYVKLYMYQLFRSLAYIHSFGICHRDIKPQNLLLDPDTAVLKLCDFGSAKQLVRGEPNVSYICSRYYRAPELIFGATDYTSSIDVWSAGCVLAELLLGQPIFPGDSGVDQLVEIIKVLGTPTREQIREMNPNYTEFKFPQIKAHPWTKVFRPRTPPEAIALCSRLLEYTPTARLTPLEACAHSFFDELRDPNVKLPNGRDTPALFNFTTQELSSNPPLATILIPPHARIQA

For the next assay, the target named is T4, CDK16/Cyclin Y (Homo sapiens, UniProt Q00536).
T4 construct: Full-length kinases were obtained as plasmids cloned in frame with a terminal NanoLuc-fusion; CS1810C178 (CCNY); host or cells: HEK293T
T4 sequence (Q00536 whole entry, the tested form may be a part): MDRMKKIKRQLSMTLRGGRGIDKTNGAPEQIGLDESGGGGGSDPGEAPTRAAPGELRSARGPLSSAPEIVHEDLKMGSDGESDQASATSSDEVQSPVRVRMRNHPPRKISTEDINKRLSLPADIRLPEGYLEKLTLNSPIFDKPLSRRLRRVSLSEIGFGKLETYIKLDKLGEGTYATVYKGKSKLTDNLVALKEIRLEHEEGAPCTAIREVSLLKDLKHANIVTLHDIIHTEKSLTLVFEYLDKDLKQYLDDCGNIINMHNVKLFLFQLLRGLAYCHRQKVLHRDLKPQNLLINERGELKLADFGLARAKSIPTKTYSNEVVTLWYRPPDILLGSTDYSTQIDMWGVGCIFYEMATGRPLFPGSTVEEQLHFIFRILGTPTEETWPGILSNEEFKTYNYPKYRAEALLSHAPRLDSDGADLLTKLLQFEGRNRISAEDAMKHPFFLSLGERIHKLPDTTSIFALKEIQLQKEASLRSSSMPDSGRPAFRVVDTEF
T4 sequence (Q8ND76 2-341 partner limits assumed): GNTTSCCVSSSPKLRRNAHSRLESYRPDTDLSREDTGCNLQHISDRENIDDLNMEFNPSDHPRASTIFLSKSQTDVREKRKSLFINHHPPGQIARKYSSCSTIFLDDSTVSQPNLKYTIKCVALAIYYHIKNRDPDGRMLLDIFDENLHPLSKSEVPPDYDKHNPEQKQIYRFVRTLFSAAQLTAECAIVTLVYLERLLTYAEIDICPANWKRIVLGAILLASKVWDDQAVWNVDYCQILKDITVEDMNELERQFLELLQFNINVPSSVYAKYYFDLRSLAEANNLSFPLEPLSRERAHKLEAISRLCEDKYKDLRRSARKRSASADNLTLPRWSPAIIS
The experiment in a line: NanoBRET. The class given is cell-based. The settings on record: Figure 7, 11-point dose-response in duplicates; read-out: NanoBRET EC50 ± SEM against CDK16. The procedure:
Next, to specifically quantify the outcome of the cellular activity of the compounds, a NanoBRET cellular target engagement assay was performed. The determination of the cellular potency on CDK16 correlated well with the corresponding DSF assay data (Figure S2). […] As mentioned before, the exchange from a methyl ester to an iso-propyl or tert-butyl ester led to a higher stabilization of the kinase in the DSF assay, which correlated with an increase in cellular potency as determined in the NanoBRET assay. […] The number of potential off-targets was low with 1 and 2 kinases with ΔTm >5 °C (Figure 4), highlighting these inhibitors for more comprehensive selectivity studied within the CDK and particular the TAIRE subfamily.
(§3) The assay was performed as described previously. In brief: Full-length kinases were obtained as plasmids cloned in frame with a terminal NanoLuc-fusion (Promega, Madison, WI, USA), as specified in table (Table S6). Plasmids were transfected into HEK293T cells using FuGENE HD (Promega, E2312) and proteins were allowed to express for 20h. Serially diluted inhibitor and NanoBRET Kinase Tracer (Promega) at a concentration determined previously as the KD,app (Table S5) were pipetted into white 384-well plates (Greiner 781207) using an Echo acoustic dispenser (Labcyte, San Jose, CA, USA). The corresponding protein-transfected cells were added and reseeded at a density of 2.5 × 10^5 cells/mL after trypsinization and resuspending in Opti-MEM without phenol red (Life Technologies, Carlsbad, CA, USA). The system was allowed to equilibrate for 2 h at 37 °C/5% CO2 prior to BRET measurements. To measure BRET, NanoBRET NanoGlo Substrate + Extracellular NanoLuc Inhibitor (Promega, N2540) was added as per the manufacturer’s protocol, and filtered luminescence was measured on a PHERAstar plate reader (BMG Labtech, Ortenberg, Germany) equipped with a luminescence filter pair (450 nm BP filter (donor) and 610 nm LP filter (acceptor)). Competitive displacement data were then graphed using GraphPad Prism 9 software using a normalized 3-parameter curve fit with the following equation: Y = 100/(1 + 10^(X–LogEC50)).
In general terms: BRET reads energy transfer from a luciferase to a nearby fluorophore.

The subject of a further assay is CDK16 and GSK3. The experiment in a line: proteome-wide CETSA MS. The class given is cell-based. The settings on record: K562 cells, 30 µM, 60 min. On the procedure: To verify whether the substances also lead to stabilization of proteins in the cellular system, proteome-wide CETSA experiments were performed. Therefore, lead structure 1 and some compounds from the second series (21b, 21d, 21e, 21h, and 21i) were selected for this study (Figure 6, Figure S1). While the statistical significance is plotted on the Y-axis, the relative protein amount is shown on the X-axis. […] Based on excellent proteome-wide selectivity identifying CDK16 and GSK3 as the most prominently stabilized kinases, 21d and 21i were selected for further investigations. […] We therefore decided to proceed with a CDK16-specific cellular assay.
Compressed CETSA MS assays, also known as PISA (Proteome Integral Stability Alteration assay), were performed as previously described by Chernobrovkin et. al., with some minor changes. K562 cells were obtained from ATCC. K562 cells were mixed with an equal volume of compound solution, final concentartion of 30 µM, in a buffer (20 mM HEPES, 138 mM NaCl, 5 mM KCl, 2 mM CaCl2, 1 mM MgCl2, pH 7.4). One percent and DMSO was used as a control. Cells were incubated at +37 °C for 60 min. The cell suspension was split into 12 aliquots which were heated at a different temperature between 44 and 66 °C for 3 min. After the heating, the cells were lysed through freeze–thawing them 3 times and the lysed aliquots were pooled together. Cell debris and aggregates were removed through centrifugation (20 min at 30.000× g).

The target of assay [4] is T3, GSK3B. Kind of assay: NanoBRET. The class given is cell-based. Further details: Full-length kinases were obtained as plasmids cloned in frame with a terminal NanoLuc-fusion; host or cells: HEK293T. On the procedure:
as §3, with “Competitive displacement data were then graphed using GraphPad Prism 9 software using a normalized 3-parameter curve fit with the following equation: Y = 100/(1 + 10^(X–LogEC50)).” left out
Target sequence in this assay (P49841 whole entry): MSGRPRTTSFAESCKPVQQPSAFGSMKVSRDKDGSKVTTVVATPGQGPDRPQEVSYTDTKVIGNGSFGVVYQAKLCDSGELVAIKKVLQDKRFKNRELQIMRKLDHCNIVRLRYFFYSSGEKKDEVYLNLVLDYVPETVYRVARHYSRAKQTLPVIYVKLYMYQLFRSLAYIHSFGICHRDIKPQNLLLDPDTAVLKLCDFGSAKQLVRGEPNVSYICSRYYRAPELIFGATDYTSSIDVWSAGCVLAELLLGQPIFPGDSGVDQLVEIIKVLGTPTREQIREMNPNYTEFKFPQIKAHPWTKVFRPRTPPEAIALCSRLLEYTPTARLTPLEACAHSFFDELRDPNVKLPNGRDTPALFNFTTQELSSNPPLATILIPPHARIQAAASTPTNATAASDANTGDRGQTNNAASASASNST

Another assay relates to CDK5. The settings on record: cited from earlier work.
In assay [5] the target is T2, CDK2. The settings on record: cited from earlier work.
For the next assay, the system named is 359 wild-type kinases. Also on record: method as in PMID 19053485. The settings on record: kinome-wide screen; cited from earlier work.
The subject of another assay is HCT116-FUCCI cells. Kind of assay: FUCCI cell cycle assay and viability assessment. The class given is cell-based. The settings on record: 1, 5, 10 µM (milciclib 1, 10 µM), 24 h. On the procedure: This technology enables the detection of cell cycle states (G1, G2/M, or S phase) on a single cell level. Additionally, a viability assessment, as described by Tjaden et. al., was performed using Hoechst33342 as a nuclear marker. […] At 10 µM of the same compound, the pyknosed nuclei rate was even higher, on average 45% (Figure 9C). An increase in cells including a pyknosed nucleus indicate apoptotic cell death, due to typical morphological changes like DNA condensation. […] Milciclib is a published CDK2 inhibitor and was used as a reference compound [55]. […] At later time points, the G2/M phase arrest was no longer detectable (Table S7). This can be explained due to the increasing amount of apoptotic cells.
To validate the influence of the compounds on the cell cycle, a florescent ubiquitination-based cell cycle indicator (FUCCI) assay was performed as described previously. In Brief, HCT116-FUCCI cells, stably expressing the FUCCI system, introduced by the Sleeping Beauty transposon system, were seeded at a density of 1250 cells per well in a 384 well plate (Cell culture microplate, PS, f-bottom, µClear®, 781091, Greiner, Frickenhausen, Germany) in culture medium (50 µL per well) and stained additionally with 60 nM Hoechst33342 (Thermo Scientific). Fluorescence and cellular shape were measured before and after compound treatment for 72 h every 12 h using the CQ1 high-content confocal microscope (Yokogawa, Tokyo, Japan). Compounds were added directly to the cells at three different concentrations (1 µM, 5 µM and 10 µM). The following parameters were used for image acquisition: Ex 405 nm/Em 447/60 nm, 500ms, 50%; Ex 561 nm/Em 617/73 nm, 100 ms, 40%; Ex 488/Em 525/50 nm, 50 ms, 40%; Ex 640 nm/Em 685/40, 50 ms, 20 %; bright field, 300ms, 100% transmission, one centered field per well, 7 z stacks per well with 55 µm spacing. Analysis of images was performed using the CellPathfinder software (Yokogawa). The cell count was normalized against the cell count of cells treated with 0.1% DMSO. All normal gated cells were further classified in cells containing healthy, fragmented or pyknosed nuclei. […] Error bars show SEM of biological duplicates. All data can be found in Table S7.

SMILES strings stand for the structures.

T1 sequence (Q00536 163-478): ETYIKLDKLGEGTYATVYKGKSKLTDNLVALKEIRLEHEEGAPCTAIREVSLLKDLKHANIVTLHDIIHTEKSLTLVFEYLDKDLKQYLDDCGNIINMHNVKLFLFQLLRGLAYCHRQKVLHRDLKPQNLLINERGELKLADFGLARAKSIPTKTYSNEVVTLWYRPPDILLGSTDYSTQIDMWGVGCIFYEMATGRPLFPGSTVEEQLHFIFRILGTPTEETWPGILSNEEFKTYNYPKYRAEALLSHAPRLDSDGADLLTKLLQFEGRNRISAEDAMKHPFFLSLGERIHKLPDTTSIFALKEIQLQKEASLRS

As to `CC(C)OC(=O)c1cc(Nc2ccnc(NCCCCCNC(=O)OC(C)(C)C)n2)n[nH]1` [42b, isopropyl 3-((2-((5-((tert-butoxycarbonyl)amino)pentyl)amino)pyrimidin-4-yl)amino)-1H-pyrazole-5-carboxylate], the ΔTm (as a rule, the change in melting temperature against a reference sample) at 10 µM on CDK16 is 9.1 ± 0.1 °C; on CDK2 [1] it was 6.5 °C; on GSK3B [3] it was 7.8 ± 0.3 °C. In [2], the “Kinases with shifts > 5°C” value is recorded as 7–10. The EC50 – broadly, the midpoint of the concentration-response curve – at CDK16/Cyclin Y is 54 ± 1.8 nM.
Consider `COC(=O)c1cc(Nc2ccnc(Nc3ccc(CNC(=O)OC(C)(C)C)cc3)n2)[nH]n1` [21h, methyl 5-((2-((4-(((tert-butoxycarbonyl)amino)methyl)phenyl)amino)pyrimidin-4-yl)amino)-1H-pyrazole-3-carboxylate], for which the ΔTm at 10 µM turned out to be 5.1 ± 0.1 °C at CDK16, 2.5 ± 0.2 °C on CDK2 [1] and 6 ± 0.3 °C at GSK3B [3]. Also, in [2], the “Kinases with shifts > 5°C” value is reported as 4–9. Further, the EC50 on CDK16/Cyclin Y amounted to 391 nM. Besides, in the assay on CDK16 and GSK3, the “stabilization in CETSA MS” value was “stabilization of CDK16 and GSK3”.
Consider `COC(=O)c1cc(Nc2ccnc(Nc3ccc(CCN)cc3)n2)n[nH]1` [compound 24, methyl 3-((2-((4-(2-aminoethyl)phenyl)amino)pyrimidin-4-yl)amino)-1H-pyrazole-5-carboxylate], for which the EC50 at GSK3B [4] came out at 18000 nM; at CDK16/Cyclin Y it was 2830 ± 544 nM. In addition, the values for the ΔTm at 10 µM on CDK16, at CDK2 [1] and on GSK3B [3] were 2.4 ± 0.1 °C, 3 °C and 9.5 °C, respectively.
Turning to `CC(C)(C)OC(=O)NCCCCCNc1nccc(Nc2cc(C(=O)OC(C)(C)C)[nH]n2)n1` [43b, tert-butyl 3-((2-((5-((tert-butoxycarbonyl)amino)pentyl)amino)pyrimidin-4-yl)amino)-1H-pyrazole-5-carboxylate], the ΔTm at 10 µM turned out to be 9.3 ± 0.1 °C on CDK16, 6.5 ± 0.1 °C on CDK2 [1] and 6.6 ± 0.1 °C on GSK3B [3]. Further, the “Kinases with shifts > 5°C” value in [2] is on record as 7–10. For the same compound, the EC50 at CDK16/Cyclin Y amounted to 76 ± 0.9 nM.
With `Cc1cc(Nc2cc(N3CCN(C)CC3)nc(Sc3ccc(NC(=O)C4CC4)cc3)n2)[nH]n1` [tozasertib], the “affinity for CDK5” value with CDK5 is “no affinity”. Moreover, the “affinity for CDK2” value on CDK2 [5] was “no affinity”.
On to `N#CCc1ccc(Nc2nc(Nc3cc(C4CC4)[nH]n3)c3ccccc3n2)cc1` [compound 3], for which the “number of kinases targeted of 359 wild-type kinases” value in the assay with 359 wild-type kinases is 317.
For `COC(=O)c1cc(Nc2ccnc(Nc3ccc(CC#N)cc3)n2)[nH]n1` [21f, methyl 5-((2-((4-(cyanomethyl)phenyl)amino)pyrimidin-4-yl)amino)-1H-pyrazole-3-carboxylate], the ΔTm at 10 µM on CDK16 came to 5.3 °C; at CDK2 [1], 7.8 °C; at GSK3B [3], 12.3 ± 0.7 °C. Besides, the “Kinases with shifts > 5°C” value in [2] came to 27. For the same compound, at CDK16/Cyclin Y, the EC50 was found to be 112 ± 8.6 nM.
As to `CNC(=O)c1nn(C)c2c1C(C)(C)Cc1cnc(Nc3ccc(N4CCN(C)CC4)cc3)nc1-2` [Milciclib, reference compound], the “effect on the cell cycle (FUCCI)” value with HCT116-FUCCI cells is on record as “G1 cell cycle arrest”.
`COC(=O)c1cc(Nc2ccnc(Nc3cccc(CCNC(=O)OC(C)(C)C)c3)n2)[nH]n1` [21b, methyl 5-((2-((3-(2-((tert-butoxycarbonyl)amino)ethyl)phenyl)amino)pyrimidin-4-yl)amino)-1H-pyrazole-3-carboxylate]: the ΔTm at 10 µM worked out at 4.9 °C at CDK16, 4.6 ± 0.1 °C at CDK2 [1] and 8.6 ± 0.2 °C on GSK3B [3]. At CDK16/Cyclin Y, the half-maximal effective concentration (EC50) worked out at 688 ± 22.5 nM. In the assay with CDK16 and GSK3, the “stabilization in CETSA MS” value was “stabilization of CDK16 and GSK3”.
With `COC(=O)c1cc(Nc2ccnc(NCCCCCCNC(=O)OC(C)(C)C)n2)[nH]n1` [21e, methyl 5-((2-((6-((tert-butoxycarbonyl)amino)hexyl)amino)pyrimidin-4-yl)amino)-1H-pyrazole-3-carboxylate], the ΔTm at 10 µM on CDK16 was determined as 8.5 °C; at CDK2 [1], 6.5 ± 0.1 °C; on GSK3B [3], 8.6 ± 0.1 °C. Moreover, on CDK16/Cyclin Y, the EC50 worked out at 152 nM. The “stabilization in CETSA MS” value in the assay on CDK16 and GSK3 was “stabilization of CDK16 and GSK3”.

These data come from PMC9736855, “Discovery of 3-Amino-1H-pyrazole-Based Kinase Inhibitors to Illuminate the Understudied PCTAIRE Family” (International Journal of Molecular Sciences, 2022).
